Biological target: T1, NTCP (Na+ taurocholate cotransporting peptide), HepG2-hNTCP-C4 cell line (Homo sapiens, UniProt Q14973)
T1 construct: expressed in transfected cells; host or cells: HepG2-hNTCP-C4 (HepG2 cells expressing human NTCP)
T1 sequence (Q14973 1-349): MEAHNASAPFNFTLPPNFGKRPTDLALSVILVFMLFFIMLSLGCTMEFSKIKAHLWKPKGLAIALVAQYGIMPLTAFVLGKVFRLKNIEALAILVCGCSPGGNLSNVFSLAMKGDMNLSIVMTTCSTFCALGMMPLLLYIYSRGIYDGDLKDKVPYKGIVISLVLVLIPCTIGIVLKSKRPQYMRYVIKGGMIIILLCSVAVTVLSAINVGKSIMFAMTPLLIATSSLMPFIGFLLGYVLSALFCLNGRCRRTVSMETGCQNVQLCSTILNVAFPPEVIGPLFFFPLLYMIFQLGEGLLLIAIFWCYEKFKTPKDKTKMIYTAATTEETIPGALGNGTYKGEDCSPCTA
Assay: Inhibition of binding between FITC-labelled PreS1 and NTCP expressing cell line, flow cytometry
Conditions: for relative fluorescence intensity in comparison with the parent bile acid Comparative Example: vs Comparative Example 2 (UDCA), 5 (DCA) or 6 (CDCA), method as Experimental Example 1-1; for ability to inhibit the binding between PreS1 and NTCP expressing cell lines (bile acid series) / relative fluorescence intensity compared to Comparative Example 1 (LCA): compound 50 µM; for relative fluorescence intensity compared to Comparative Example 1 (LCA): 20 nM PreS1, 4° C., 2 hours, lower = more inhibited binding
Protocol: HepG2-hNTCP-C4 cell line, a cell line expressing NTCP, was seeded in a 6 well plate at a density of 2×10^5/well and incubated at 4° C. for 30 minutes when the confluency reached 80% after overnight incubation for 2 days. Thereafter, 20 nM PreS1 (Myr-GTNL […]-Lys(FITC) (SEQ ID NO: 1)) and the compounds in Example 1, Examples 38 to 56 or the compound in Comparative Example 1 were treated by diluting in culture media at 4° C. at a concentration of 50 µM respectively, and the media was suctioned after 2 hours, followed by washing 3 times with 4° C. PBS. In order to take the cells off from the plate, 500 μl of 0.5 mM EDTA PBS solution was treated, and then incubation was performed at 37° C. for 15 minutes to check whether the cells fell off through an optical microscope. After taking off the cells by pipetting, the cells were collected in a 1.5 ml tube and centrifuged (4000 rpm, 4° C., 3 min). After suctioning the supernatant, the pellet was washed 3 times with 4° C. PBS, and then green fluorescence was measured via flow cytometry. In this case, taurocholic acid (TCA), a compound known as a substrate of NTCP to reduce the entry of HBV or HDV, was used as a positive control group.
In the graph at the top of FIG. 1, black (1) and red (2) indicate a negative control group with no treatment and an HBV-induced group (HBV preS1) solely treated with PreS1, respectively. Blue (HBV preS1+HBV entry inhibitor) (3) is the fluorescence value for each of Examples or Comparative Examples, evaluated that the closer to the negative control group, the more inhibited the binding between PreS1 and the NTCP cell line.
The experimental method was the same as in the Experimental Example 1-1, and 20 nM PreS1 and each compound were treated at 4 concentrations (0.2 μM, 2 μM, 10 μM, 50 μM).
With an expectation that there is a structure-activity relationship among compounds composed of bile acid and amino acids, for each of bile acids in Comparative Example 1 (lithocholic acid, LCA), Comparative Example 2 (ursodeoxycholic acid, UDCA), Comparative Example 3 (cholic acid, CA), Comparative Example 4 (hyodeoxycholic acid, HDCA), Comparative Example 5 (deoxycholic acid, DCA), and Comparative Example 6 (chenodeoxycholic acid, CDCA), an evaluation experiment was conducted on an ability to inhibit the binding between PreS1 and NTCP expressing cell lines, and also for Examples 1 (LCA-Ile) and Example 44 (LCA-Val) as well as the compounds in Example 2 (UDCA-Ile), Example 3 (UDCA-Val), Example 6 (CA-Ile), Example 7 (CA-Val), Example 8 (HDCA-Ile), Example 9 (HDCA-Val), Example 10 (DCA-Ile), Example 11 (DCA-Val), Example 14 (CDCA-Ile), and Example 15 (CDCA-Val) in which bile acid parts (lithocholic acid) of Example 1 (LCA-Ile) and Example 44 (LCA-Val) were substituted with other types of bile acids in Comparative Examples 2 to 6, an evaluation experiment was conducted on an ability to inhibit the binding between PreS1 and NTCP expressing cell lines. The experimental method was the same as in the Experimental Example 1-1, and 18 compounds in the Comparative Examples 1 to 6, Examples 1 to 3, Examples 6 to 11, Examples 14 to 15, and Example 44 were treated at a concentration of 50 µM along with 20 nM PreS1.
In FIG. 9, an evaluation experiment was conducted to check a degree of inhibiting the binding between PreS1 and NTCP expressing cell lines for compounds in Examples 4 to 5, Examples 12 to 13, Examples 16 to 17, and Comparative Examples 2 (ursodeoxycholic acid, UDCA), Comparative Examples 5 (deoxycholic acid, DCA), and Comparative Examples 6 (chenodeoxycholic acid, CDCA) according to the present disclosure. The experimental method was the same as the Experimental Example 1-1.
In the Experimental Examples 1-4, it was determined whether there is additionally concentration dependence for Example 4 (UDCA-Trp), a compound with good inhibitory ability. […]

Structure (SMILES): C[C@H](CCC(=O)N[C@@H](Cc1ccc(O)cc1)C(=O)O)[C@H]1CC[C@H]2[C@@H]3CC[C@@H]4C[C@H](O)CC[C@]4(C)[C@H]3C[C@H](O)[C@]12C [Example 13, (S)-2-((R)-4-((3R,5R,8R,9S,10S,12S,13R,14S,17R)-3,12-dihydroxy-10,13-dimethyl-hexadecahydro-1H-cyclopenta[a]phenanthren-17-yl)pentanamido)-3-(4-hydroxyphenyl)propanoic acid]
- relative fluorescence intensity in comparison with the parent bile acid Comparative Example: the same or lower

Structure (SMILES): CC(C)[C@H](NC(=O)CC[C@@H](C)[C@H]1CC[C@H]2[C@@H]3C[C@H](O)[C@@H]4C[C@H](O)CC[C@]4(C)[C@H]3CC[C@]12C)C(=O)O [Example 9, (S)-2-((R)-4-((3R,5R,6S,8S,9S,10R,13R,14S,17R)-3,6-dihydroxy-10,13-dimethyl-hexadecahydro-1H-cyclopenta[a]phenanthren-17-yl)pentanamido)-3-methylbutanoic acid]
- ability to inhibit the binding between PreS1 and NTCP expressing cell lines (bile acid series) (20 nM PreS1): relatively excellent

Structure (SMILES): C[C@H](CCC(=O)N[C@@H](Cc1ccc(O)cc1)C(=O)O)[C@H]1CC[C@H]2[C@@H]3[C@H](O)C[C@@H]4C[C@H](O)CC[C@]4(C)[C@H]3CC[C@]12C [Example 17, (S)-2-((R)-4-((3R,5S,7R,8R,9S,10S,13R,14S,17R)-3,7-dihydroxy-10,13-dimethyl-hexadecahydro-1H-cyclopenta[a]phenanthren-17-yl)pentanamido)-3-(4-hydroxyphenyl)propanoic acid]
- relative fluorescence intensity in comparison with the parent bile acid Comparative Example: low

Structure (SMILES): C[C@H](CCC(=O)N[C@@H](Cc1cnc[nH]1)C(=O)O)[C@H]1CC[C@H]2[C@@H]3CC[C@@H]4C[C@H](O)CC[C@]4(C)[C@H]3CC[C@]12C [Example 43, (S)-2-((R)-4-((3R,5R,8R,9S,10S,13R,14S,17R)-3-hydroxy-10,13-dimethyl-hexadecahydro-1H-cyclopenta[a]phenanthren-17-yl)pentanamido)-3-(1H-imidazol-5-yl)propanoic acid]
- relative fluorescence intensity compared to Comparative Example 1 (LCA): low

Structure (SMILES): C[C@H](CCC(=O)N1CCCC1C(=O)O)[C@H]1CC[C@H]2[C@@H]3CC[C@@H]4C[C@H](O)CC[C@]4(C)[C@H]3CC[C@]12C (stereo partly drawn) [Example 38, 1-((R)-4-((3R,5R,8R,9S,10S,13R,14S,17R)-3-hydroxy-10,13-dimethyl-hexadecahydro-1H-cyclopenta[a]phenanthren-17-yl)pentanoyl)pyrrolidine-2-carboxylic acid]
- relative fluorescence intensity compared to Comparative Example 1 (LCA): low and lower

Structure (SMILES): C[C@H](CCC(=O)N[C@@H](CS)C(=O)O)[C@H]1CC[C@H]2[C@@H]3CC[C@@H]4C[C@H](O)CC[C@]4(C)[C@H]3CC[C@]12C [Example 40, (R)-2-((R)-4-((3R,5R,8R,9S,10S,13R,14S,17R)-3-hydroxy-10,13-dimethyl-hexadecahydro-1H-cyclopenta[a]phenanthren-17-yl)pentanamido)-3-mercaptopropanoic acid]
- relative fluorescence intensity compared to Comparative Example 1 (LCA): low and lower

Structure (SMILES): CSCC[C@H](NC(=O)CC[C@@H](C)[C@H]1CC[C@H]2[C@@H]3CC[C@@H]4C[C@H](O)CC[C@]4(C)[C@H]3CC[C@]12C)C(=O)O [Example 48, (S)-2-((R)-4-((3R,5R,8R,9S,10S,13R,14S,17R)-3-hydroxy-10,13-dimethyl-hexadecahydro-1H-cyclopenta[a]phenanthren-17-yl)pentanamido)-4-(methylthio)butanoic acid]
- relative fluorescence intensity compared to Comparative Example 1 (LCA): low and lower

Structure (SMILES): CC(C)C[C@H](NC(=O)CC[C@@H](C)[C@H]1CC[C@H]2[C@@H]3CC[C@@H]4C[C@H](O)CC[C@]4(C)[C@H]3CC[C@]12C)C(=O)O [Example 47]
- relative fluorescence intensity compared to Comparative Example 1 (LCA): low and lower

Structure (SMILES): C[C@H](CCC(=O)N[C@@H](Cc1c[nH]c2ccccc12)C(=O)O)[C@H]1CC[C@H]2[C@@H]3[C@H](O)C[C@@H]4C[C@H](O)CC[C@]4(C)[C@H]3CC[C@]12C [Example 16, (S)-2-((R)-4-((3R,5S,7R,8R,9S,10S,13R,14S,17R)-3,7-dihydroxy-10,13-dimethyl-hexadecahydro-1H-cyclopenta[a]phenanthren-17-yl)pentanamido)-3-(1H-indol-3-yl)propanoic acid]
- difference in degree of competitive inhibition versus the parent bile acid Comparative Example (compared to the HBV-induced group (PreS1-FITC) solely treated with PreS1, vs Comparative Example 5 or 6): 17.8%
- relative fluorescence intensity in comparison with the parent bile acid Comparative Example: low

Structure (SMILES): C[C@H](CCC(=O)N[C@@H](Cc1c[nH]c2ccccc12)C(=O)O)[C@H]1CC[C@H]2[C@@H]3CC[C@@H]4C[C@H](O)CC[C@]4(C)[C@H]3CC[C@]12C [Example 50, (S)-2-((R)-4-((3R,5R,8R,9S,10S,13R,14S,17R)-3-hydroxy-10,13-dimethyl-hexadecahydro-1H-cyclopenta[a]phenanthren-17-yl)pentanamido)-3-(1H-indol-3-yl)propanoic acid]
- effect of inhibiting the binding between PreS1 and NTCP expressing cell lines by treatment concentration (0.2 μM, 2 μM, 10 μM, 50 μM, 20 nM PreS1): concentration dependent
- relative fluorescence intensity compared to Comparative Example 1 (LCA): low and lower

Structure (SMILES): CC[C@@H](C)[C@H](NC(=O)CC[C@@H](C)[C@H]1CC[C@H]2[C@@H]3C[C@H](O)[C@@H]4C[C@H](O)CC[C@]4(C)[C@H]3CC[C@]12C)C(=O)O [Example 8, (2S,3R)-2-((R)-4-((3R,5R,6S,8S,9S,10R,13R,14S,17R)-3,6-dihydroxy-10,13-dimethyl-hexadecahydro-1H-cyclopenta[a]phenanthren-17-yl)pentanamido)-3-methylpentanoic acid]
- ability to inhibit the binding between PreS1 and NTCP expressing cell lines (bile acid series) (20 nM PreS1): relatively excellent

Structure (SMILES): CC[C@@H](C)[C@H](NC(=O)CC[C@@H](C)[C@H]1CC[C@H]2[C@@H]3[C@H](O)C[C@@H]4C[C@H](O)CC[C@]4(C)[C@H]3CC[C@]12C)C(=O)O [Example 14, (2S,3R)-2-((R)-4-((3R,5S,7R,8R,9S,10S,13R,14S,17R)-3,7-dihydroxy-10,13-dimethyl-hexadecahydro-1H-cyclopenta[a]phenanthren-17-yl)pentanamido)-3-methylpentanoic acid]
- ability to inhibit the binding between PreS1 and NTCP expressing cell lines (bile acid series) (20 nM PreS1): relatively excellent

Source: US20260234180A1, “AMINO ACID DERIVATIVE, PREPARATION METHOD THEREFOR, AND PHARMACEUTICAL COMPOSITION FOR TREATING HEPATITIS, COMPRISING SAME” (priority 2021, published 2026)
